From PubChem BioAssay (NCI)
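Growth conditions: 96-well plates. Treatment: test compound, 48 hours, 5 concentrations. Analysis: linear interpolation between bracketing concentrations; unreached endpoints set to highest concentration. The concentration for 50% growth inhibition is given as GI50. TGI: total growth inhibition.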

Assays:
Experiment in all cases: NCI tumour cell line growth inhibition, 48 h
HCT-15 colon = tested on: HCT-15 colon
NCI-H522 lung = tested on: NCI-H522 lung
HL-60(TB) leukemia = tested on: HL-60(TB) leukemia
SK-MEL-28 melanoma = tested on: SK-MEL-28 melanoma
A498 renal = tested on: A498 renal
ACHN renal = tested on: ACHN renal
SF-268 CNS = tested on: SF-268 CNS
SF-539 CNS = tested on: SF-539 CNS
RPMI-8226 leukemia = tested on: RPMI-8226 leukemia
MOLT-4 leukemia = tested on: MOLT-4 leukemia

Compound	GI50 (HCT-15 colon)	TGI (HCT-15 colon)	GI50 (NCI-H522 lung)	TGI (NCI-H522 lung)	GI50 (HL-60(TB) leukemia)	TGI (HL-60(TB) leukemia)	GI50 (SK-MEL-28 melanoma)	TGI (SK-MEL-28 melanoma)	GI50 (A498 renal)	TGI (A498 renal)	GI50 (ACHN renal)	TGI (ACHN renal)	GI50 (SF-268 CNS)	TGI (SF-268 CNS)	GI50 (SF-539 CNS)	TGI (SF-539 CNS)	TGI (RPMI-8226 leukemia)	TGI (MOLT-4 leukemia)	GI50 (RPMI-8226 leukemia)	GI50 (MOLT-4 leukemia)
c1ccc([CH2][Sn]([CH2]c2ccccc2)([O]c2cccc3cccnc23)[O]c2cccc3cccnc23)cc1	0.394 µM	1.37 µM	0.186 µM	0.351 µM	0.314 µM	> 100 µM	0.193 µM	0.963 µM	0.429 µM	0.692 µM	1.03 µM	2.2 µM	1.2 µM	7.04 µM	0.248 µM	0.677 µM	–	–	–	–
CC(=O)Nc1ccc(/C=c2\sc3nnc(CCC(=O)Nc4ccccc4Cl)n3c2=O)cc1	–	> 100 µM	–	36.2 µM	–	41 µM	–	56.5 µM	–	–	–	> 100 µM	–	88 µM	–	58 µM	45.2 µM	44.7 µM	–	–
COC1OC(CO)C(O)C(OC(C)=O)C1NC(=O)N(CCCl)N=O (configuration not stated)	–	–	–	> 100 µM	–	> 100 µM	–	> 100 µM	–	> 100 µM	–	> 100 µM	–	> 100 µM	–	> 100 µM	–	> 100 µM	–	–
COc1ccc2c(c1)[n+]([O-])c(-c1ccc([N+](=O)[O-])cc1)c(N)[n+]2[O-]	–	–	–	32.9 µM	–	> 100 µM	–	> 100 µM	–	> 100 µM	–	> 100 µM	–	> 100 µM	–	> 100 µM	–	> 100 µM	–	–
O=C1CC(c2c(-c3ccccc3)[nH]c3ccccc23)C(=O)N1 (configuration not stated)	–	> 100 µM	–	–	–	> 100 µM	–	> 100 µM	–	> 100 µM	–	> 100 µM	–	–	–	> 100 µM	> 100 µM	> 100 µM	–	–
COC(=O)C(Cc1nc2ccccc2[nH]c1=O)/C(=N\NC(C)(C)C)C(=O)Nc1c(C)cc(Br)cc1C (configuration not stated)	–	48.2 µM	–	29 µM	–	–	–	51.8 µM	–	69.5 µM	–	> 100 µM	–	77.7 µM	–	44.5 µM	> 100 µM	28.7 µM	–	–
Cn1cc(C2=C(c3ccccc3[N+](=O)[O-])C(=O)NC2=O)c2ccccc21	5.16 µM	> 25 µM	5.78 µM	18.1 µM	2.11 µM	13.9 µM	6.24 µM	20.1 µM	0.384 µM	2.57 µM	1.65 µM	> 23.4 µM	5.64 µM	18 µM	2.61 µM	10.1 µM	15.2 µM	–	5.93 µM	–
C[C@]12CCc3nc(Nc4cccc(O)c4)sc3C1=CC[C@@H]1[C@@H]2CC[C@]2(C)/C(=N\NC(N)=S)CC[C@@H]12	1.15 µM	2.64 µM	1.7 µM	3.69 µM	2.53 µM	8.31 µM	–	–	3.01 µM	15.5 µM	2.15 µM	6 µM	1.66 µM	4.45 µM	0.464 µM	1.84 µM	–	6.9 µM	–	0.765 µM
O=S(=O)([O-])c1ccc(N=Cc2ccccc2[O-])cc1.O=S(=O)([O-])c1ccc(N=Cc2ccccc2[O-])cc1.[O]=[U+2]=[O]	31.3 µM	> 100 µM	> 100 µM	> 100 µM	–	–	> 100 µM	> 100 µM	> 100 µM	> 100 µM	> 100 µM	> 100 µM	> 100 µM	> 100 µM	54.7 µM	> 100 µM	> 100 µM	> 100 µM	> 100 µM	64.1 µM
COc1c(C)cc(O)cc1C=O	–	> 100 µM	–	> 100 µM	–	> 100 µM	–	> 100 µM	–	–	–	> 100 µM	–	> 100 µM	–	> 100 µM	> 100 µM	> 100 µM	–	–
O=c1cc(-c2ccccc2)oc2ccc(OC/C(=N/O)c3ccccc3)cc12	2.19 µM	> 50 µM	2.88 µM	> 50 µM	2.12 µM	> 50 µM	8.38 µM	> 50 µM	–	–	–	–	2.08 µM	13.2 µM	1.39 µM	2.93 µM	> 50 µM	> 50 µM	1.83 µM	5.72 µM
CC[C@H]1CN2CCc3cc(OC)c(OC)cc3C2C[C@@H]1CC1NCCc2cc(OC)c(OC)cc21 (some centres not stated)	–	2.02 µM	0.0127 µM	0.0354 µM	0.0204 µM	0.144 µM	–	0.119 µM	–	0.313 µM	–	1.42 µM	–	–	–	–	0.128 µM	3.75 µM	–	–
CCC(CC)c1nc(Nc2ccc(C(=O)OC)cc2)c2ccccc2n1	11 µM	> 33.1 µM	8.65 µM	18.4 µM	8.17 µM	26 µM	7.1 µM	15.3 µM	–	–	8.1 µM	18.1 µM	6.69 µM	19.1 µM	> 20.5 µM	> 28.6 µM	22.9 µM	3.67 µM	5.08 µM	1.41 µM
Oc1ccc([Te]CCNCC[Te]c2ccc(O)cc2)cc1	–	–	–	–	–	38.5 µM	–	–	–	46.6 µM	–	94.8 µM	–	> 100 µM	–	–	> 100 µM	> 100 µM	–	–
C=CC(=O)NCCSCCCOC1(C(=O)O)CC(O)C(NC(C)=O)C(C(O)C(O)CO)O1 (configuration not stated)	–	> 100 µM	–	> 100 µM	–	> 100 µM	–	> 100 µM	–	–	–	> 100 µM	–	–	–	> 100 µM	> 100 µM	> 100 µM	–	–
COc1cccc2ccc(C(=O)c3ccccc3)nc12	–	> 100 µM	–	> 100 µM	–	–	–	> 100 µM	–	–	–	> 100 µM	–	> 100 µM	–	> 100 µM	> 100 µM	> 100 µM	–	–
NCCCNc1nc2ccccc2c2c(=O)c3cc(F)cc(F)c3sc12	1.6 µM	3.14 µM	–	–	2.08 µM	4.2 µM	1.86 µM	3.39 µM	1.38 µM	2.93 µM	1.65 µM	3.06 µM	1.63 µM	3.32 µM	1.77 µM	3.24 µM	–	–	–	–
CN1C(=O)CCC2[C@@H]3CC=C4C[C@@H](O)CC[C@]4(C)C3CC[C@@]21C (some centres not stated)	–	> 100 µM	–	–	–	56 µM	–	> 100 µM	–	> 100 µM	–	> 100 µM	–	–	–	> 100 µM	> 100 µM	69.6 µM	–	–
CCCCCCCCOCC(O)COC(C)C (configuration not stated)	–	> 100 µM	–	–	–	31.7 µM	–	> 100 µM	–	> 100 µM	–	> 100 µM	–	> 100 µM	–	–	51.9 µM	45 µM	–	–
COc1ccc(C(CCC(C)=O)C(=O)O)cc1OC (configuration not stated)	–	> 100 µM	–	–	–	–	–	> 100 µM	–	> 100 µM	–	> 100 µM	–	> 100 µM	–	> 100 µM	> 100 µM	–	–	–
